The results in this text go back to patent US9527869B2, “Indolizine derivatives as phoshoinositide 3-kinases inhibitors” (CHIESI FARMACEUTICI S.P.A., priority 2014, dated 2016).

Common to all, as to type: biochemical
One experiment deals with T1, PI3Kα (Homo sapiens, UniProt P42336).
T1 construct: purchased Millipore Ltd (Billerica, Mass.)
Kind of experiment: In vitro determination of the PI3K enzyme inhibitory activity in the cell free assay (ADP-Glo Kinase Assay), PI3Kα. The note with it: ATP 50 μM, read-out: PI3K alpha inhibition. The protocol:
(§1) In vitro Determination of the PI3K Enzyme Inhibitory Activity in the Cell Free Assay
(§2) Human recombinant proteins PI3Kα, PI3Kβ, PI3Kγ and PI3Kδ were purchased from Millipore Ltd (Billerica, Mass.). Compounds were dissolved at 0.5 mM in DMSO and were tested at different concentrations for their activity against PI3Ks using the ADP-Glo™ Kinase Assay (Promega, Madison Wis.) according to the manufacturer's instructions.
(§3) Briefly, the kinase reactions were performed in 384-well white plates (Greiner Bio-One GmbH, Frickenhausen). Each well was loaded with 0.1 μl of test compounds and 2.5 μl of 2× reaction buffer (40 mM Tris pH7.5, 0.5 mM EGTA, 0.5 mM Na3VO4, 5 mM β-glycerophosphate, 0.1 mg/ml BSA, 1 mM DTT), containing 50 μM PI and PS substrates (L-α-phosphatidylinositol sodium salt and L-α-phosphatidyl-L-serine, Sigma-Aldrich, St. Louis Mo.) and the PI3K recombinant proteins (PI3Kγ 0.25 ng/μl, PI3Kδ 1 ng/μl, PI3Kα 0.125 ng/μl, PI3Kβ 1 ng/μl).
(§4) The reactions were started by adding 2.5 μl of 2×ATP solution to each well (final concentrations: PI3Kγ ATP 30 μM; PI3Kδ ATP 80 μM; PI3KαATP 50 μM; PI3Kβ ATP 100 μM) and incubated for 60 min at room temperature. Subsequently, each kinase reaction was incubated for 40 min with 5 μl ADP-Glo™ Reagent, allowing depletion of unconsumed ATP. Then, the Kinase Detection Reagent (10 μl) was added in each well to convert ADP to ATP and to allow the newly synthesized ATP to be measured using a luciferase/luciferin reaction. Following 60 min incubation, the luminescence signal was measured using a Wallac EnVision® multilabel reader (PerkinElmer, Waltham Mass.).
(§5) Curve fitting and IC50 calculation were carried out using a four-parameter logistic model in XLfit (IDBS, Guilford, UK) for Microsoft Excel (Microsoft, Redmont, Wash.).

In a further experiment the target is T2, PI3Kδ (Homo sapiens, UniProt O00329).
T2 construct: purchased Millipore Ltd (Billerica, Mass.)
Description: In vitro determination of the PI3K enzyme inhibitory activity in the cell free assay (ADP-Glo Kinase Assay), PI3Kδ. The note with it: ATP 80 μM, read-out: PI3K delta inhibition. The protocol: as §1, §2, §3, §4, §5

The target of another experiment is T3, PI3Kγ (Homo sapiens, UniProt P48736).
T3 construct: purchased Millipore Ltd (Billerica, Mass.)
Kind of experiment: In vitro determination of the PI3K enzyme inhibitory activity in the cell free assay (ADP-Glo Kinase Assay), PI3Kγ. The conditions noted are these: ATP 30 μM, read-out: PI3K gamma inhibition. The protocol: as §1, §2, §3, §4, §5

The target in a further experiment is T4, PI3Kβ (Homo sapiens, UniProt P42338).
T4 construct: purchased Millipore Ltd (Billerica, Mass.)
Description: In vitro determination of the PI3K enzyme inhibitory activity in the cell free assay (ADP-Glo Kinase Assay), PI3Kβ. The note with it: ATP 100 μM, read-out: PI3K beta inhibition. The protocol: as §1, §2, §3, §4, §5

Where a name gives a salt, the structure may show the parent alone. Some results are limits rather than exact numbers.

T4 sequence (P42338 whole entry): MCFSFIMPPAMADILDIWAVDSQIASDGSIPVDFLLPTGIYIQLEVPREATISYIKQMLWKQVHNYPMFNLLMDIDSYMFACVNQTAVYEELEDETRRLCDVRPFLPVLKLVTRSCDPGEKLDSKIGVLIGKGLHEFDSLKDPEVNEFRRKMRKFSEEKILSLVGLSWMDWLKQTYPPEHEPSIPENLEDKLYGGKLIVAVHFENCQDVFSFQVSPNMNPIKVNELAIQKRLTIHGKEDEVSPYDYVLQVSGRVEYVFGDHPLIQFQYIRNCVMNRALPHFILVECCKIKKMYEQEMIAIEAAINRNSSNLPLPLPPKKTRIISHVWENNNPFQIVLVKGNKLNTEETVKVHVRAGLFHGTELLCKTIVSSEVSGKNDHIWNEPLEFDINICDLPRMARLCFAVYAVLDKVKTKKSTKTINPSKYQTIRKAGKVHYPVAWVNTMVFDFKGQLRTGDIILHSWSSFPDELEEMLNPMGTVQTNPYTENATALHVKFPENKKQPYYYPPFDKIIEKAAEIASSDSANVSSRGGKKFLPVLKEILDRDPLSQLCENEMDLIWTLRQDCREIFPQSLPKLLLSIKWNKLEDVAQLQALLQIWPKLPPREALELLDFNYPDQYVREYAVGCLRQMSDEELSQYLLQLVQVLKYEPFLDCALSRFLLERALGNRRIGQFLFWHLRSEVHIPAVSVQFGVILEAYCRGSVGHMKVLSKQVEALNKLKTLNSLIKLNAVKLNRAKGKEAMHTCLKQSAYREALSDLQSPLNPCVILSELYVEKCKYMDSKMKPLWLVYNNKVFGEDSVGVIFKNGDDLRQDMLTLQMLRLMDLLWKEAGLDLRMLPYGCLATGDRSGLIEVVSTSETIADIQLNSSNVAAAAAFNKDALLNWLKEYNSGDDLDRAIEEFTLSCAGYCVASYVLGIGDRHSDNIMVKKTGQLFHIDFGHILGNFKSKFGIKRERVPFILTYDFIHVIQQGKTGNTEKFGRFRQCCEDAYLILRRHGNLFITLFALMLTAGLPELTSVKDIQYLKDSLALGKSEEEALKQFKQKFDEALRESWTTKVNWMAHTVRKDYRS
T4 sequence (P27986 whole entry partner): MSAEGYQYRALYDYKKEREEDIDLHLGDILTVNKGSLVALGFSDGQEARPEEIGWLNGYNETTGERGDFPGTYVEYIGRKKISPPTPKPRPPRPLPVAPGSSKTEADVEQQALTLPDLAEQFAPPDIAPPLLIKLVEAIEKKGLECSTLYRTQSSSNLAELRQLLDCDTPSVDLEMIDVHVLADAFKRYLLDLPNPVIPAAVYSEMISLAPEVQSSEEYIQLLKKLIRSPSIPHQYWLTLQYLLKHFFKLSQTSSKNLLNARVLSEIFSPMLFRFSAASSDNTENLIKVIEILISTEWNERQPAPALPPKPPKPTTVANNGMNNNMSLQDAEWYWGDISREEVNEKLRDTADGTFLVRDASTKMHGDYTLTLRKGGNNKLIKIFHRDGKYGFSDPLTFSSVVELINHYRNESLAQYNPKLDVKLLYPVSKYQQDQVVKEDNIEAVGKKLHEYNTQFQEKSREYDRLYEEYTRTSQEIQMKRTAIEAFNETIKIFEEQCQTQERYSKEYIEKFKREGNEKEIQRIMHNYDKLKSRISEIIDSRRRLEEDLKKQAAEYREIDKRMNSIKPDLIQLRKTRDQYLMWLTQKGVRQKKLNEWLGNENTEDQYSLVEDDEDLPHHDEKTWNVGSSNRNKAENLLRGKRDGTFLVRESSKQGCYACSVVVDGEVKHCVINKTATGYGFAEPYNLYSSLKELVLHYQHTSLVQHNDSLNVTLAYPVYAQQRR
T3 sequence (P48736 whole entry): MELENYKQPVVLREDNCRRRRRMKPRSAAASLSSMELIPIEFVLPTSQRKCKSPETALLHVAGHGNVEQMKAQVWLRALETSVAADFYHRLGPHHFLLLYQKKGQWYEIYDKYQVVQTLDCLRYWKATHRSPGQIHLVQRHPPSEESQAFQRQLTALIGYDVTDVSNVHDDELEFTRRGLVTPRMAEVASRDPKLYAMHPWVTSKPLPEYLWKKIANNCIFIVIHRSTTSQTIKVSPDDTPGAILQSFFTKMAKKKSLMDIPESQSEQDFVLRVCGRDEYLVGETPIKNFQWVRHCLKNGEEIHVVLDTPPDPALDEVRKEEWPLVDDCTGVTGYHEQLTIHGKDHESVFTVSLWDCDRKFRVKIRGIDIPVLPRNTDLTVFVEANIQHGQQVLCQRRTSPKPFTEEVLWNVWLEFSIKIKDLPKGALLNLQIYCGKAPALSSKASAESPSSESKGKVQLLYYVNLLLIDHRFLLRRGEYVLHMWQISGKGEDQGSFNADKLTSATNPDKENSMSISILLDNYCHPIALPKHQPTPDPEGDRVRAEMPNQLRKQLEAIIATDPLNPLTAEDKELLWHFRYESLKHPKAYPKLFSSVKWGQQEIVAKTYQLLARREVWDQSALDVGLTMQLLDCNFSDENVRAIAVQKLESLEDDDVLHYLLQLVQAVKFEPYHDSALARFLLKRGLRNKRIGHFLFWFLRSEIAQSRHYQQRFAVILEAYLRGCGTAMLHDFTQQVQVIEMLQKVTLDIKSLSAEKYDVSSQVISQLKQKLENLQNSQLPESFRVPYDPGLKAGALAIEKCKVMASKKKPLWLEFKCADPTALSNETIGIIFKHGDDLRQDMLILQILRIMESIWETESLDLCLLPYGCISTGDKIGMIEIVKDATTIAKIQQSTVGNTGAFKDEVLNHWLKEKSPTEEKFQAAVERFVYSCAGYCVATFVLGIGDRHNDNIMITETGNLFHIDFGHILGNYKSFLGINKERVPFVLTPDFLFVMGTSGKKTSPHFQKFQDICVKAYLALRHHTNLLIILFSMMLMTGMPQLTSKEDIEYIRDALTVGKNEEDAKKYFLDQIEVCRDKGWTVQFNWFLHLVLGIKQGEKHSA
T1 sequence (P42336 whole entry): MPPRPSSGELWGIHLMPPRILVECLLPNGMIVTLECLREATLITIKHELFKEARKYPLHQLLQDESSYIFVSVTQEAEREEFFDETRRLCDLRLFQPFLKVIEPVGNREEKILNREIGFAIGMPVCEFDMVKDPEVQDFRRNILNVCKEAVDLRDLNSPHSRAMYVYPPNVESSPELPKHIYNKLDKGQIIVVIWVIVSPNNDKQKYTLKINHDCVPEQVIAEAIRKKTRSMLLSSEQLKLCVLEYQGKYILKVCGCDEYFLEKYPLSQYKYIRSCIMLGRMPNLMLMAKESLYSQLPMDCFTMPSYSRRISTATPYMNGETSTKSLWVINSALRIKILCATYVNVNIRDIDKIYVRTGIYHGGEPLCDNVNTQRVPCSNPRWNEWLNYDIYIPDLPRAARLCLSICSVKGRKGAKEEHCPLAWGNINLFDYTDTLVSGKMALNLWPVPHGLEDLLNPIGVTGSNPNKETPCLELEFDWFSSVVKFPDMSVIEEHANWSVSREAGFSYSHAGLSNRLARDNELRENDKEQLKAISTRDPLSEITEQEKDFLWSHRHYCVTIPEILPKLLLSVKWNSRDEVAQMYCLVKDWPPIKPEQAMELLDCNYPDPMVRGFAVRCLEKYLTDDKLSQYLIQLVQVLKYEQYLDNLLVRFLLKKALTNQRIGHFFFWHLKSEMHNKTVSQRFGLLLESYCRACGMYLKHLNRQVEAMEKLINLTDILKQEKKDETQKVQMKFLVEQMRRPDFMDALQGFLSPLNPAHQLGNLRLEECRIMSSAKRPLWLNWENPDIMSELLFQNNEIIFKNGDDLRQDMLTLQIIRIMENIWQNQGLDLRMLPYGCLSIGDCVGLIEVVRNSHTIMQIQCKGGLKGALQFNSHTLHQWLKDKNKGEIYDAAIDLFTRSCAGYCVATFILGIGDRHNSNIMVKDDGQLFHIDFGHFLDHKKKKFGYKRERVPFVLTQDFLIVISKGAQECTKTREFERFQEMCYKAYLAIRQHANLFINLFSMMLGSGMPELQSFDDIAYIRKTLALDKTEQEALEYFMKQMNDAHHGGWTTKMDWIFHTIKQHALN
T1 sequence (P27986 whole entry partner): as the sequence (P27986 whole entry partner) above
T2 sequence (O00329 whole entry): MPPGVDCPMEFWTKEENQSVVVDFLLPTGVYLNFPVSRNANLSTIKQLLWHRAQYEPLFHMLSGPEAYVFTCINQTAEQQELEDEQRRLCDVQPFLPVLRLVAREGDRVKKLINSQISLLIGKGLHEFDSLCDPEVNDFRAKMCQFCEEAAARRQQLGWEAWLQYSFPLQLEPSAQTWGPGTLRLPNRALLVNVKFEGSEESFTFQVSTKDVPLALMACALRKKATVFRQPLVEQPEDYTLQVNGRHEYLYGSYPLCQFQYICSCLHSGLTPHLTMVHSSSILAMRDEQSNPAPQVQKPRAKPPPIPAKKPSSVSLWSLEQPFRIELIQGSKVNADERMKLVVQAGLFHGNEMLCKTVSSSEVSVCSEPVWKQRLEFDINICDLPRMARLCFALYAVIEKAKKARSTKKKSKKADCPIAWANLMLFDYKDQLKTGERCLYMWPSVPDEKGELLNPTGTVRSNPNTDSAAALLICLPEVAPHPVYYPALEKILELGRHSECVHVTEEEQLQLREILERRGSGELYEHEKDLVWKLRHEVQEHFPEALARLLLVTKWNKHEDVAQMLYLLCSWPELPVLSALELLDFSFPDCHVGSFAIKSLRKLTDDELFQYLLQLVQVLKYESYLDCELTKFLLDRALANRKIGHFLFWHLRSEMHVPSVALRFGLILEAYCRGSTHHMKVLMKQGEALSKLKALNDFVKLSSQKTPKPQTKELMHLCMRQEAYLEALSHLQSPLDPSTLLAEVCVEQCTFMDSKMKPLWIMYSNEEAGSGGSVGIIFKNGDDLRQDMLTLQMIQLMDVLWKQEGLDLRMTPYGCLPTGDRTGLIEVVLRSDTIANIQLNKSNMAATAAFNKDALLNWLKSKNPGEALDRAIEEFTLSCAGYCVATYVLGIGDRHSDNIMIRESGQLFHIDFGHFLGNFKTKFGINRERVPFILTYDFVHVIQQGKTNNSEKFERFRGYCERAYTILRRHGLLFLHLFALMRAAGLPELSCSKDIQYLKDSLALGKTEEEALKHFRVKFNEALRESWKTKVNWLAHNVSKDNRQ
T2 sequence (P27986 whole entry partner): as the sequence (P27986 whole entry partner) above

Turning to `CCC(Nc1ncnc(N)c1C#N)c1cc2ccccn2c1-c1ccccn1` (stereo not shown) [Example 44, 4-amino-6-({1-[3-(pyridin-2-yl)indolizin-2-yl]propyl}amino)pyrimidine-5-carbonitrile], the IC50 is over 1 µM at PI3Kα, 0.01 to 1 µM at PI3Kδ, 0.01 to 1 µM on PI3Kγ and over 1 µM on PI3Kβ.

Take `Nc1ncnc2c1c(-c1cc(O)cc(F)c1)nn2Cc1cc2ccccn2c1-c1ccccn1` [Example 97, 3-(4-amino-1-{[3-(pyridin-2-yl)indolizin-2-yl]methyl}-1H-pyrazolo[3,4-d]pyrimidin-3-yl)-5-fluorophenol]: the IC50 on PI3Kα was 0.01 to 1 µM; on PI3Kδ it was under 0.01 µM; on PI3Kγ it was 0.01 to 1 µM; on PI3Kβ, 0.01 to 1 µM.

Take `CC(c1cc2ccccn2c1-c1ccc(OCCN(C)C)nn1)n1nc(-c2cc(O)cc(F)c2)c2c(N)ncnc21` (stereo not shown) [Example 138, 3-{4-amino-1-[1-(3-{6-[2-(dimethylamino)-ethoxy]pyridazin-3-yl}indolizin-2-yl)-ethyl]-1H-pyrazolo[3,4-d]pyrimidin-3-yl}-5-fluorophenol]: the IC50 on PI3Kα was 0.01 to 1 µM; at PI3Kδ, under 0.01 µM; on PI3Kγ, 0.01 to 1 µM; at PI3Kβ it was 0.01 to 1 µM.

On to `C[C@H](c1cc2ccccn2c1-c1ccc(CN2CCN(C)CC2)cn1)n1nc(-c2cc(O)cc(F)c2)c2c(N)ncnc21` (single isomer, unassigned) [Example 114b, 3-{4-amino-1-[1-(3-{5-[(4-methylpiperazin-1-yl)methyl]pyridin-2-yl}indolizin-2-yl)ethyl]-1H-pyrazolo[3,4-d]pyrimidin-3-yl}-5-fluorophenol], for which the IC50 at PI3Kα was 0.01 to 1 µM; at PI3Kδ, under 0.01 µM; at PI3Kγ it was 0.01 to 1 µM; at PI3Kβ, 0.01 to 1 µM.

Turning to `Cc1ccccc1-c1c(CNc2ncnc(N)c2C#N)cn2ccccc12` [Example 29, 4-amino-6-({[1-(2-methylphenyl)indolizin-2-yl]methyl}amino)pyrimidine-5-carbonitrile], the IC50 was over 1 µM at PI3Kα, 0.01 to 1 µM on PI3Kδ, over 1 µM at PI3Kγ and over 1 µM at PI3Kβ.

As to `CC(c1cc2ccccn2c1-c1ccccn1)n1nc(-c2cccc(CO)c2)c2c(N)ncnc21` (stereo not shown) [Example 64, [3-(4-amino-1-{1-[3-(pyridin-2-yl)indolizin-2-yl]ethyl}-1H-pyrazolo[3,4-d]pyrimidin-3-yl)phenyl]methanol], the IC50 at PI3Kα is over 1 µM; at PI3Kδ, 0.01 to 1 µM; on PI3Kγ it was over 1 µM; at PI3Kβ, over 1 µM.

As to `C[C@H](c1cc2ccccn2c1-c1cccc(CN(C)C)c1)n1nc(-c2cc(O)cc(F)c2)c2c(N)ncnc21` (single isomer, unassigned) [Example 93a, 3-{4-amino-1-[1-(3-{3-[(dimethylamino)methyl]phenyl}indolizin-2-yl)ethyl]-1H-pyrazolo[3,4-d]pyrimidin-3-yl}-5-fluorophenol], the IC50 at PI3Kα was 0.01 to 1 µM; on PI3Kδ, under 0.01 µM; on PI3Kγ, over 1 µM; on PI3Kβ, 0.01 to 1 µM.

With `Fc1cccc(-c2c(CNc3ncnc4[nH]cnc34)cc3ccccn23)c1` [Example 15, N-{[3-(3-fluorophenyl)indolizin-2-yl]methyl}-9H-purin-6-amine], the IC50 at PI3Kα, on PI3Kδ, at PI3Kγ and at PI3Kβ was over 1 µM throughout.

Consider `CC(c1cc2ccccn2c1-c1ccccn1)n1nc(-c2cc(O)cc(C(F)(F)F)c2)c2c(N)ncnc21` (stereo not shown) [Example 65, 3-(4-amino-1-{1-[3-(pyridin-2-yl)indolizin-2-yl]ethyl}-1H-pyrazolo[3,4-d]pyrimidin-3-yl)-5-(trifluoromethyl)phenol], for which the IC50 on PI3Kα is over 1 µM; on PI3Kδ, under 0.01 µM; on PI3Kγ it was 0.01 to 1 µM; at PI3Kβ, 0.01 to 1 µM.

`Cc1ccc2cc(C(C)n3nc(-c4cc(O)cc(F)c4)c4c(N)ncnc43)c(-c3ccccn3)n2c1` (stereo not shown) [Example 87, 3-(4-amino-1-{1-[6-methyl-3-(pyridin-2-yl)indolizin-2-yl]ethyl}-1H-pyrazolo[3,4-d]pyrimidin-3-yl)-5-fluorophenol]: the IC50 on PI3Kα was over 1 µM; at PI3Kδ, 0.01 to 1 µM; on PI3Kγ, over 1 µM; at PI3Kβ, 0.01 to 1 µM.

For `CNC(=O)c1c(N)ncnc1NC(C)c1cc2ccccn2c1-c1ccccn1` (stereo not shown) [Example 51, 4-amino-N-methyl-6-({1-[3-(pyridin-2-yl)indolizin-2-yl]ethyl}amino)pyrimidine-5-carboxamide], the IC50 on PI3Kα is over 1 µM; at PI3Kδ it was 0.01 to 1 µM; at PI3Kγ, over 1 µM; at PI3Kβ, over 1 µM.

Regarding `CC(Nc1ncnc(N)c1C(=O)O)c1cc2ccccn2c1-c1ccccn1` (stereo not shown) [Example 53, 4-amino-6-({1-[3-(pyridin-2-yl)indolizin-2-yl]ethyl}amino)pyrimidine-5-carboxylic acid formate], the IC50 on PI3Kα, at PI3Kδ, at PI3Kγ and at PI3Kβ was over 1 µM throughout.

Take `C[C@H](c1c(C#N)c2ccccn2c1-c1cccc(CN(C)C)c1)n1nc(-c2cc(O)cc(F)c2)c2c(N)ncnc21` (single isomer, unassigned) [Example 127a, 2-{1-[4-amino-3-(3-fluoro-5-hydroxyphenyl)-1H-pyrazolo[3,4-d]pyrimidin-1-yl]ethyl}-3-{3-[(dimethylamino)methyl]phenyl}indolizine-1-carbonitrile]: the IC50 on PI3Kα was 0.01 to 1 µM; at PI3Kδ, under 0.01 µM; at PI3Kγ, 0.01 to 1 µM; on PI3Kβ it was 0.01 to 1 µM.

In the case of `Cc1ccn2c(-c3ccccn3)c(C(C)n3nc(-c4cc(O)cc(F)c4)c4c(N)ncnc43)cc2c1` (stereo not shown) [Example 105, 3-(4-amino-1-{1-[7-methyl-3-(pyridin-2-yl)indolizin-2-yl]ethyl}-1H-pyrazolo[3,4-d]pyrimidin-3-yl)-5-fluorophenol], the IC50 at PI3Kα is over 1 µM; at PI3Kδ, 0.01 to 1 µM; on PI3Kγ, over 1 µM; on PI3Kβ it was over 1 µM.

Take `CC(c1cc2ccccn2c1-c1ccccn1)n1nc(-c2cc(N)cc(F)c2)c2c(N)ncnc21` (stereo not shown) [Example 76, 3-(3-amino-5-fluorophenyl)-1-{1-[3-(pyridin-2-yl)indolizin-2-yl]ethyl}-1H-pyrazolo[3,4-d]pyrimidin-4-amine]: the IC50 is over 1 µM on PI3Kα, 0.01 to 1 µM on PI3Kδ, over 1 µM at PI3Kγ and 0.01 to 1 µM at PI3Kβ.

With `CC(c1cc2ccccn2c1-c1ccn(CCN(C)C)c(=O)c1)n1nc(-c2cc(O)cc(F)c2)c2c(N)ncnc21` (single isomer, unassigned) [Example 133a, 4-(2-{1-[4-amino-3-(3-fluoro-5-hydroxyphenyl)-1H-pyrazolo[3,4-d]pyrimidin-1-yl]ethyl}indolizin-3-yl)-1-[2-(dimethylamino)ethyl]-1,2-dihydropyridin-2-one], the IC50 was over 1 µM on PI3Kα, 0.01 to 1 µM on PI3Kδ, over 1 µM on PI3Kγ and over 1 µM at PI3Kβ.

Consider `Cc1c(N)ncnc1NC(C)c1cc2ccccn2c1-c1ccccn1` (stereo not shown) [Example 50, 5-methyl-4-N-{1-[3-(pyridin-2-yl)indolizin-2-yl]ethyl}pyrimidine-4,6-diamine], for which the IC50 on PI3Kα was over 1 µM; on PI3Kδ, 0.01 to 1 µM; at PI3Kγ, over 1 µM; on PI3Kβ, over 1 µM.

Turning to `CC(c1cc2ccccn2c1-c1ccc(=O)n(CCN2CCOCC2)c1)n1nc(-c2cc(O)cc(F)c2)c2c(N)ncnc21` (stereo not shown) [Example 120, 5-(2-{1-[4-amino-3-(3-fluoro-5-hydroxyphenyl)-1H-pyrazolo[3,4-d]pyrimidin-1-yl]ethyl}-indolizin-3-yl)-1-[2-(morpholin-4-yl)ethyl]-1,2-dihydropyridin-2-one], the IC50 was over 1 µM on PI3Kα, under 0.01 µM on PI3Kδ, 0.01 to 1 µM on PI3Kγ and over 1 µM at PI3Kβ.

Take `C[C@H](c1cc2ccccn2c1-c1ccn(CCN2CCOCC2)c(=O)c1)n1nc(-c2cc(O)cc(F)c2)c2c(N)ncnc21` (single isomer, unassigned) [Example 121a, 4-(2-{1-[4-amino-3-(3-fluoro-5-hydroxyphenyl)-1H-pyrazolo[3,4-d]pyrimidin-1-yl]ethyl}indolizin-3-yl)-1-[2-(morpholin-4-yl)ethyl]-1,2-dihydropyridin-2-one]: the IC50 at PI3Kα is over 1 µM; at PI3Kδ, 0.01 to 1 µM; at PI3Kγ it was over 1 µM; on PI3Kβ, over 1 µM.
